The source of these data is ChEMBL document CHEMBL3526086, “Identification of the oxidative and conjugative enzymes involved in the biotransformation of brivanib” (Drug Metab Dispos, 2012).

What all share (assay type): ADME
Data set [1] has as its target T1, Cytochrome P450 1A2 (Homo sapiens, UniProt P05177).
T1 sequence (P05177 whole entry): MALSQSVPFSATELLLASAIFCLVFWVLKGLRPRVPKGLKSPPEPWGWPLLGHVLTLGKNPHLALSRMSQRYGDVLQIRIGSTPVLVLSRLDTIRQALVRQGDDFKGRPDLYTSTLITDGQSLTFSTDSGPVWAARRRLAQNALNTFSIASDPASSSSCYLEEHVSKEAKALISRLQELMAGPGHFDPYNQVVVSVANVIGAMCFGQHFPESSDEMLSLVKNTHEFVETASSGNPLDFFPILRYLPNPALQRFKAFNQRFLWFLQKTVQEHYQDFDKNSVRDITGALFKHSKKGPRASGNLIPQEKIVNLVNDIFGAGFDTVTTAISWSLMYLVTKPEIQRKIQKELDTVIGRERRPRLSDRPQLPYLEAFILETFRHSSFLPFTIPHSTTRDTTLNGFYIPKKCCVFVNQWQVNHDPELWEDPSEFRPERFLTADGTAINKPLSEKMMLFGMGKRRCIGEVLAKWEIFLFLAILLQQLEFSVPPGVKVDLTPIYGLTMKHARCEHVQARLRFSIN
Description: Activity of human CYP1A2 assessed as intrinsic clearance for enzyme-mediated (R)-1-(4-(4-fluoro-2-(hydroxymethyl)-1H-indol-5-yloxy)-5-methylpyrrolo[1,2-f][1,2,4]triazin-6-yloxy)propan-2-ol formation per picomole enzyme in presence of NADPH.

Data set [2] deals with T2, Cytochrome P450 2C9 (Homo sapiens, UniProt P11712). The data set can be described thus: Drug metabolism in human liver microsomes assessed as monoclonal antibody-mediated inhibition of CYP2C9-mediated (R)-1-(4-(4-fluoro-2-(hydroxymethyl)-1H-indol-5-yloxy)-5-methylpyrrolo[1,2-f][1,2,4]triazin-6-yloxy)propan-2-ol formation at 2 and 20 uM for 30 mins by LC/MS analysis. The note with it: 0.5 h. In general terms: Liver microsomes are vesicles of endoplasmic reticulum, rich in cytochrome P450 enzymes.

Data set [3] concerns the target Cytochrome P450 2E1 (Homo sapiens, UniProt P05181). Description: Drug metabolism in human liver microsomes assessed as monoclonal antibody-mediated inhibition of CYP2E1-mediated (R)-1-(4-(4-fluoro-2-(hydroxymethyl)-1H-indol-5-yloxy)-5-methylpyrrolo[1,2-f][1,2,4]triazin-6-yloxy)propan-2-ol formation at 2 and 20 uM for 30 mins by LC/MS analysis. The note with it: 0.5 h.

Data set [4] has as its target T3, Cytochrome P450 2B6 (Homo sapiens, UniProt P20813).
T3 sequence (P20813 whole entry): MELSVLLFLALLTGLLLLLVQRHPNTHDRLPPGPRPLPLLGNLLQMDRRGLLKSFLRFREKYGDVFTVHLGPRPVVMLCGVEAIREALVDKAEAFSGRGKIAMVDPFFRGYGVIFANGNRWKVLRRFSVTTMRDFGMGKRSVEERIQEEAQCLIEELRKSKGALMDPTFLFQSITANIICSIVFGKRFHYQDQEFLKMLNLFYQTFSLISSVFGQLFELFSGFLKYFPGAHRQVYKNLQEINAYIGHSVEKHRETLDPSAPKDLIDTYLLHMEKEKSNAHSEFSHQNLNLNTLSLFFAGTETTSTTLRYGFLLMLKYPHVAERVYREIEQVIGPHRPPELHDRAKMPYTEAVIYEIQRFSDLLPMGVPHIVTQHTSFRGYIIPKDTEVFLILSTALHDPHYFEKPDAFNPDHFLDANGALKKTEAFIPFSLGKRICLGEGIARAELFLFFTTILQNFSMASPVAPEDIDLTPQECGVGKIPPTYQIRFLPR
Description: Drug metabolism in human liver microsomes assessed as monoclonal antibody-mediated inhibition of CYP2B6-mediated (R)-1-(4-(4-fluoro-2-(hydroxymethyl)-1H-indol-5-yloxy)-5-methylpyrrolo[1,2-f][1,2,4]triazin-6-yloxy)propan-2-ol formation at 2 and 20 uM for 30 mins by LC/MS analysis. Conditions: 0.5 h.

In data set [5] the test system is Liver microsome. The data set can be described thus: Drug level in human liver microsomes assessed as compound formation treated with 2 uM [14C]brivanib alaninate for 60 mins by LC/MS analysis in presence of NADPH. The note with it: 1 h.
Data set [6] has as its target Sulfotransferase 1E1 (Homo sapiens, UniProt P49888). Description: Drug metabolism assessed as human SULT1E1-mediated (R)-1-(4-(4-fluoro-2-methyl-1H-indol-5-yloxy)-5-methylpyrrolo[1,2-f][1,2,4]triazin-6-yloxy)propane-2-sulfonic acid formation at 2 and 20 uM for 30 mins by LC/MS analysis in presence of PAPS. Conditions: 0.5 h.
The target of data set [7] is Cytochrome P450 1B1 (Homo sapiens, UniProt Q16678). The data set can be described thus: Drug metabolism assessed as human CYP1B1-mediated (R)-1-(4-(4-fluoro-2-(hydroxymethyl)-1H-indol-5-yloxy)-5-methylpyrrolo[1,2-f][1,2,4]triazin-6-yloxy)propan-2-ol formation at 2 and 20 uM for 20 mins by LC/MS analysis in presence of NADPH. The note with it: recombinant enzyme.
Data set [8] in a line: Activity of CYP3A4/CYP1A2 in human liver microsomes assessed as enzyme-mediated (R)-1-(4-(4-fluoro-2-(hydroxymethyl)-1H-indol-5-yloxy)-5-methylpyrrolo[1,2-f][1,2,4]triazin-6-yloxy)propan-2-ol formation per mg protein in presence of NADPH.
Data set [9] concerns the target Cytochrome P450 2C19 (Homo sapiens, UniProt P33261). Description: Drug metabolism in human liver microsomes assessed as monoclonal antibody-mediated inhibition of CYP2C19-mediated (R)-1-(4-(4-fluoro-2-(hydroxymethyl)-1H-indol-5-yloxy)-5-methylpyrrolo[1,2-f][1,2,4]triazin-6-yloxy)propan-2-ol formation at 2 and 20 uM for 30 mins by LC/MS analysis. Conditions: 0.5 h.

The target of data set [10] is T2, Cytochrome P450 2C9. Description: Drug metabolism in human liver microsomes assessed as 10 uM sulfaphenazole-mediated inhibition of CYP2C9-mediated (R)-1-(4-(4-fluoro-2-(hydroxymethyl)-1H-indol-5-yloxy)-5-methylpyrrolo[1,2-f][1,2,4]triazin-6-yloxy)propan-2-ol formation at 2 and 20 uM for 30 mins by LC/MS analysis. The note with it: 0.5 h.
The target of data set [11] is T4, Cytochrome P450 2C8 (Homo sapiens, UniProt P10632).
T4 sequence (P10632 whole entry): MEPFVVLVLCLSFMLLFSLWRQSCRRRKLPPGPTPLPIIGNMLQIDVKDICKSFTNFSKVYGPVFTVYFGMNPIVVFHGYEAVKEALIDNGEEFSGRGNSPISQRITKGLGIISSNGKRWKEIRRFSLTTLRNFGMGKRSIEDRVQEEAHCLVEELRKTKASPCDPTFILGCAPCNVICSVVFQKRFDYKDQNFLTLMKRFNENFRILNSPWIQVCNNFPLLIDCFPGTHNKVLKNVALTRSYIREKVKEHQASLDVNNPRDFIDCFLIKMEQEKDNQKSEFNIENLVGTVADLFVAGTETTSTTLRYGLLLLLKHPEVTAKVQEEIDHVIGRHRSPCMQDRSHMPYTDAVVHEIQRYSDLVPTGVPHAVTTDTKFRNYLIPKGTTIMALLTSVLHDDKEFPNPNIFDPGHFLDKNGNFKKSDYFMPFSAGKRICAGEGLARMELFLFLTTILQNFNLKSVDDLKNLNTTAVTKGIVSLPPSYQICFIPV
Description: Drug metabolism in human liver microsomes assessed as 3 uM montekulast-mediated inhibition of CYP2C8-mediated (R)-1-(4-(4-fluoro-2-(hydroxymethyl)-1H-indol-5-yloxy)-5-methylpyrrolo[1,2-f][1,2,4]triazin-6-yloxy)propan-2-ol formation at 2 and 20 uM for 30 mins by LC/MS analysis. Conditions: 0.5 h.

T2 sequence (P11712 whole entry): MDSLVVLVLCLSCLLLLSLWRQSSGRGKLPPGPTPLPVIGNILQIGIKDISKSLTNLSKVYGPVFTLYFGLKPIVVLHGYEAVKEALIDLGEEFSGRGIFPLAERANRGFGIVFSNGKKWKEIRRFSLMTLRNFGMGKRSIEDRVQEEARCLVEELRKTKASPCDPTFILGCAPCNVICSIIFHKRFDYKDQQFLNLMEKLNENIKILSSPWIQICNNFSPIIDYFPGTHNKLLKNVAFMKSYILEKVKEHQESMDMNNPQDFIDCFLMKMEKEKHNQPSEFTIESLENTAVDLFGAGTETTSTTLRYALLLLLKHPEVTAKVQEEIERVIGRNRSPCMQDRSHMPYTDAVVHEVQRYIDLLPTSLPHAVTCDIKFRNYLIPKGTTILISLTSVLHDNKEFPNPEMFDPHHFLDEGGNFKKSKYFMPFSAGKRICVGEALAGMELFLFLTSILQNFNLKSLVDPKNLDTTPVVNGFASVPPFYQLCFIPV
Sequence of Cytochrome P450 2E1 (P05181 whole entry): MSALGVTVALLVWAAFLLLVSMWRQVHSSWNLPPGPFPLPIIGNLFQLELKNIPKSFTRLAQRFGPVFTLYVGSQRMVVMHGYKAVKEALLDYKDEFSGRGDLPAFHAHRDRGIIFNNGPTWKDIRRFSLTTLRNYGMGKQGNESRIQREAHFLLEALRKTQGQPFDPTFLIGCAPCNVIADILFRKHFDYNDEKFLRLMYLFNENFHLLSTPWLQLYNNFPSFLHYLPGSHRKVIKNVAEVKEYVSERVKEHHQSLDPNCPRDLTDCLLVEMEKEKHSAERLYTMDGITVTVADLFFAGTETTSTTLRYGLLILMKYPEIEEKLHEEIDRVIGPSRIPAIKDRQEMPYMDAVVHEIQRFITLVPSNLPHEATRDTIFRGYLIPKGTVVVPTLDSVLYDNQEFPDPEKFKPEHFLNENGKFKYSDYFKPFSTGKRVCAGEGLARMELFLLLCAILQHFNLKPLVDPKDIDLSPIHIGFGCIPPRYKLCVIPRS
Sequence of Cytochrome P450 2C19 (P33261 whole entry): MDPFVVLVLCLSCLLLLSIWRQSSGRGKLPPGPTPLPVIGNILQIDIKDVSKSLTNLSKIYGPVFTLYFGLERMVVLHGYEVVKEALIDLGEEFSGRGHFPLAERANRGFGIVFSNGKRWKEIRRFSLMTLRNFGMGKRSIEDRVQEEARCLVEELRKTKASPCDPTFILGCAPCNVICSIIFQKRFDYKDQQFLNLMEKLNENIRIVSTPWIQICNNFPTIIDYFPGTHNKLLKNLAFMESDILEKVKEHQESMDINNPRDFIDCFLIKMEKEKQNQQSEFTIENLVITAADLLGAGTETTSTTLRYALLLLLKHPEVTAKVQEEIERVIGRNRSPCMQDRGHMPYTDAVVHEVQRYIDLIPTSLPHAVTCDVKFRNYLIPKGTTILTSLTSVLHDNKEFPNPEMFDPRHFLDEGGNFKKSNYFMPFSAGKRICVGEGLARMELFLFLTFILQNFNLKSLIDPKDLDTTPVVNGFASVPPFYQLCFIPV
Sequence of Sulfotransferase 1E1 (P49888 whole entry): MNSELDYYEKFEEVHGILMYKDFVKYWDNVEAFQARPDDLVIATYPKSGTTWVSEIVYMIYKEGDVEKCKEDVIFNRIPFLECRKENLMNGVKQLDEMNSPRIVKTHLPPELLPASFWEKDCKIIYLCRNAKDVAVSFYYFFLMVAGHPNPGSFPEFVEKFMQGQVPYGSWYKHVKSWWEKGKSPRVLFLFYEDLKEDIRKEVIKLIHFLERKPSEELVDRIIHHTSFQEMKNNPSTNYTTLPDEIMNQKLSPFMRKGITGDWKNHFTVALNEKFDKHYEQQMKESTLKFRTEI
Sequence of Cytochrome P450 1B1 (Q16678 whole entry): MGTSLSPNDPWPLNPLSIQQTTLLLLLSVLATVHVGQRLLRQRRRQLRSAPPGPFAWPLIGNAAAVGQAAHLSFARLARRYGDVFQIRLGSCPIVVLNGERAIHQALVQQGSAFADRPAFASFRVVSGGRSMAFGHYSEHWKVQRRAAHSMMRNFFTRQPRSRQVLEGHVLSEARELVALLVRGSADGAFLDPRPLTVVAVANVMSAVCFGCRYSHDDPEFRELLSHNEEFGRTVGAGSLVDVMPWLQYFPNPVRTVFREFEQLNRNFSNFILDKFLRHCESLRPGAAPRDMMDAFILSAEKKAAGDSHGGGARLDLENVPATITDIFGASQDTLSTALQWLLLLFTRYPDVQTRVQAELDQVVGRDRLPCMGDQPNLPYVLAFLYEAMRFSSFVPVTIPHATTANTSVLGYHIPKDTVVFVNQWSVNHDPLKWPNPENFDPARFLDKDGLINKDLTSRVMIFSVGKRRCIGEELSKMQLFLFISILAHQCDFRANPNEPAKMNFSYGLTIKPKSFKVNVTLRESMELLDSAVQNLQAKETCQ

For orientation: Vmax means the top rate of the reaction or transport when substrate is in excess. As for `Cc1cc2c(F)c(Oc3ncnn4cc(OC[C@@H](C)O)c(C)c34)ccc2[nH]1` [BRIVANIB], the CL in data set [1] is 0.031 µL/min. The Drug metabolism entry in data set [2], in data set [3], in data set [4], in [5], in data set [6] and in data set [7] was “metabolite_detected” throughout. Moreover, the Drug metabolism result in data set [9], in [10] and in data set [11] was “metabolite_detected” throughout. Also, the maximal velocity (Vmax) in data set [8] was determined as 89.1 pmol/min.
